Data from patent publication US8906928B2, “Substituted pyrazolo-pyrrolo-pyridine-dione compounds” (ArQule, Inc., priority 2009, dated 2014).

Tested on: DLD-1
Test: MTS assay (cell growth inhibition), DLD-1
Type: cell-based
Settings: DLD-1 cells, 72 hours incubation with test compound; concentration not given
Method in brief: (§1)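 First, seed 3000 cells per well in low-serum (1% FBS) DMEM and culture 18 h. Next, add compounds prepared at 300× in DMSO and diluted 1:40 in DMEM; incubate 72 h. Finally, add MTS/PMS for 4 h and measure absorbance at 492 nm.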

| SMILES | MTS CELL KILL DATA (% INHIBITION) DLD-1 |
| --- | --- |
| Cc1cccc(CCN2C(=O)c3cnc4[nH]ncc4c3C2=O)c1 [Example 86, 7-[2-(3-methylphenyl)ethyl]pyrazolo[3,4-b]pyrrolo[3,4-d]pyridine-6,8(3H,7H)-dione] | C (C = <50% INHIBITION) |
| O=C1c2cnc3[nH]ncc3c2C(=O)N1CCCc1cccnc1 [Example 87, 7-(3-pyridin-3-ylpropyl)pyrazolo[3,4-b]pyrrolo[3,4-d]pyridine-6,8(3H,7H)-dione] | C (C = <50% INHIBITION) |
| COc1cccc(CN2C(=O)c3cnc4[nH]ncc4c3C2=O)c1OC [Example 92, 7-(2,3-dimethoxybenzyl)pyrazolo[3,4-b]pyrrolo[3,4-d]pyridine-6,8(3H,7H)-dione] | C (C = <50% INHIBITION) |
| CC(CN1C(=O)c2cnc3[nH]ncc3c2C1=O)c1ccccc1 (stereo not drawn) [Example 96, 7-(2-phenylpropyl)pyrazolo[3,4-b]pyrrolo[3,4-d]pyridine-6,8(3H,7H)-dione] | C (C = <50% INHIBITION) |
| O=C1c2cnc3[nH]ncc3c2C(=O)N1Cc1c(F)ccc(Cl)c1Cl [Example 97, 7-(2,3-dichloro-6-fluorobenzyl)pyrazolo[3,4-b]pyrrolo[3,4-d]pyridine-6,8(3H,7H)-dione] | C (C = <50% INHIBITION) |
| O=C1c2cnc3[nH]ncc3c2C(=O)N1Cc1ccccc1Br [Example 99, 7-(2-bromobenzyl)pyrazolo[3,4-b]pyrrolo[3,4-d]pyridine-6,8(3H,7H)-dione] | C (C = <50% INHIBITION) |

Tested on: Kato III
Test: MTS assay (cell growth inhibition), Kato III
Type: cell-based
Settings: Kato III cells, 72 hours incubation with test compound; concentration not given
Method in brief: as §1

| SMILES | MTS CELL KILL DATA (% INHIBITION) Kato III |
| --- | --- |
| Cc1cccc(CCN2C(=O)c3cnc4[nH]ncc4c3C2=O)c1 [Example 86, 7-[2-(3-methylphenyl)ethyl]pyrazolo[3,4-b]pyrrolo[3,4-d]pyridine-6,8(3H,7H)-dione] | A (A = 80-100% INHIBITION) |
| O=C1c2cnc3[nH]ncc3c2C(=O)N1CCCc1cccnc1 [Example 87, 7-(3-pyridin-3-ylpropyl)pyrazolo[3,4-b]pyrrolo[3,4-d]pyridine-6,8(3H,7H)-dione] | C (C = <50% INHIBITION) |
| COc1cccc(CN2C(=O)c3cnc4[nH]ncc4c3C2=O)c1OC [Example 92, 7-(2,3-dimethoxybenzyl)pyrazolo[3,4-b]pyrrolo[3,4-d]pyridine-6,8(3H,7H)-dione] | C (C = <50% INHIBITION) |
| CC(CN1C(=O)c2cnc3[nH]ncc3c2C1=O)c1ccccc1 (stereo not drawn) [Example 96, 7-(2-phenylpropyl)pyrazolo[3,4-b]pyrrolo[3,4-d]pyridine-6,8(3H,7H)-dione] | C (C = <50% INHIBITION) |
| O=C1c2cnc3[nH]ncc3c2C(=O)N1Cc1c(F)ccc(Cl)c1Cl [Example 97, 7-(2,3-dichloro-6-fluorobenzyl)pyrazolo[3,4-b]pyrrolo[3,4-d]pyridine-6,8(3H,7H)-dione] | C (C = <50% INHIBITION) |
| O=C1c2cnc3[nH]ncc3c2C(=O)N1Cc1ccccc1Br [Example 99, 7-(2-bromobenzyl)pyrazolo[3,4-b]pyrrolo[3,4-d]pyridine-6,8(3H,7H)-dione] | C (C = <50% INHIBITION) |

Tested on: MDA-MB
Test: MTS assay (cell growth inhibition), MDA-MB
Type: cell-based
Settings: MDA-MB cells, 72 hours incubation with test compound; concentration not given
Method in brief: as §1

| SMILES | MTS CELL KILL DATA (% INHIBITION) MDA-MB |
| --- | --- |
| Cc1cccc(CCN2C(=O)c3cnc4[nH]ncc4c3C2=O)c1 [Example 86, 7-[2-(3-methylphenyl)ethyl]pyrazolo[3,4-b]pyrrolo[3,4-d]pyridine-6,8(3H,7H)-dione] | A (A = 80-100% INHIBITION) |
| O=C1c2cnc3[nH]ncc3c2C(=O)N1CCCc1cccnc1 [Example 87, 7-(3-pyridin-3-ylpropyl)pyrazolo[3,4-b]pyrrolo[3,4-d]pyridine-6,8(3H,7H)-dione] | C (C = <50% INHIBITION) |
| COc1cccc(CN2C(=O)c3cnc4[nH]ncc4c3C2=O)c1OC [Example 92, 7-(2,3-dimethoxybenzyl)pyrazolo[3,4-b]pyrrolo[3,4-d]pyridine-6,8(3H,7H)-dione] | C (C = <50% INHIBITION) |
| CC(CN1C(=O)c2cnc3[nH]ncc3c2C1=O)c1ccccc1 (stereo not drawn) [Example 96, 7-(2-phenylpropyl)pyrazolo[3,4-b]pyrrolo[3,4-d]pyridine-6,8(3H,7H)-dione] | C (C = <50% INHIBITION) |
| O=C1c2cnc3[nH]ncc3c2C(=O)N1Cc1c(F)ccc(Cl)c1Cl [Example 97, 7-(2,3-dichloro-6-fluorobenzyl)pyrazolo[3,4-b]pyrrolo[3,4-d]pyridine-6,8(3H,7H)-dione] | C (C = <50% INHIBITION) |
| O=C1c2cnc3[nH]ncc3c2C(=O)N1Cc1ccccc1Br [Example 99, 7-(2-bromobenzyl)pyrazolo[3,4-b]pyrrolo[3,4-d]pyridine-6,8(3H,7H)-dione] | C (C = <50% INHIBITION) |

Tested on: NCI-H1299
Test: MTS assay (cell growth inhibition), NCI-H1299
Type: cell-based
Settings: NCI-H1299 cells, 72 hours incubation with test compound; concentration not given
Method in brief: as §1

| SMILES | MTS CELL KILL DATA (% INHIBITION) NCI-H1299 |
| --- | --- |
| Cc1cccc(CCN2C(=O)c3cnc4[nH]ncc4c3C2=O)c1 [Example 86, 7-[2-(3-methylphenyl)ethyl]pyrazolo[3,4-b]pyrrolo[3,4-d]pyridine-6,8(3H,7H)-dione] | C (C = <50% INHIBITION) |
| O=C1c2cnc3[nH]ncc3c2C(=O)N1CCCc1cccnc1 [Example 87, 7-(3-pyridin-3-ylpropyl)pyrazolo[3,4-b]pyrrolo[3,4-d]pyridine-6,8(3H,7H)-dione] | C (C = <50% INHIBITION) |
| COc1cccc(CN2C(=O)c3cnc4[nH]ncc4c3C2=O)c1OC [Example 92, 7-(2,3-dimethoxybenzyl)pyrazolo[3,4-b]pyrrolo[3,4-d]pyridine-6,8(3H,7H)-dione] | C (C = <50% INHIBITION) |
| CC(CN1C(=O)c2cnc3[nH]ncc3c2C1=O)c1ccccc1 (stereo not drawn) [Example 96, 7-(2-phenylpropyl)pyrazolo[3,4-b]pyrrolo[3,4-d]pyridine-6,8(3H,7H)-dione] | C (C = <50% INHIBITION) |
| O=C1c2cnc3[nH]ncc3c2C(=O)N1Cc1c(F)ccc(Cl)c1Cl [Example 97, 7-(2,3-dichloro-6-fluorobenzyl)pyrazolo[3,4-b]pyrrolo[3,4-d]pyridine-6,8(3H,7H)-dione] | C (C = <50% INHIBITION) |
| O=C1c2cnc3[nH]ncc3c2C(=O)N1Cc1ccccc1Br [Example 99, 7-(2-bromobenzyl)pyrazolo[3,4-b]pyrrolo[3,4-d]pyridine-6,8(3H,7H)-dione] | C (C = <50% INHIBITION) |

Tested on: PACA-2
Test: MTS assay (cell growth inhibition), PACA-2
Type: cell-based
Settings: PACA-2 cells, 72 hours incubation with test compound; concentration not given
Method in brief: as §1

| SMILES | MTS CELL KILL DATA (% INHIBITION) PACA-2 |
| --- | --- |
| Cc1cccc(CCN2C(=O)c3cnc4[nH]ncc4c3C2=O)c1 [Example 86, 7-[2-(3-methylphenyl)ethyl]pyrazolo[3,4-b]pyrrolo[3,4-d]pyridine-6,8(3H,7H)-dione] | C (C = <50% INHIBITION) |
| O=C1c2cnc3[nH]ncc3c2C(=O)N1CCCc1cccnc1 [Example 87, 7-(3-pyridin-3-ylpropyl)pyrazolo[3,4-b]pyrrolo[3,4-d]pyridine-6,8(3H,7H)-dione] | C (C = <50% INHIBITION) |
| COc1cccc(CN2C(=O)c3cnc4[nH]ncc4c3C2=O)c1OC [Example 92, 7-(2,3-dimethoxybenzyl)pyrazolo[3,4-b]pyrrolo[3,4-d]pyridine-6,8(3H,7H)-dione] | C (C = <50% INHIBITION) |
| CC(CN1C(=O)c2cnc3[nH]ncc3c2C1=O)c1ccccc1 (stereo not drawn) [Example 96, 7-(2-phenylpropyl)pyrazolo[3,4-b]pyrrolo[3,4-d]pyridine-6,8(3H,7H)-dione] | C (C = <50% INHIBITION) |
| O=C1c2cnc3[nH]ncc3c2C(=O)N1Cc1c(F)ccc(Cl)c1Cl [Example 97, 7-(2,3-dichloro-6-fluorobenzyl)pyrazolo[3,4-b]pyrrolo[3,4-d]pyridine-6,8(3H,7H)-dione] | C (C = <50% INHIBITION) |
| O=C1c2cnc3[nH]ncc3c2C(=O)N1Cc1ccccc1Br [Example 99, 7-(2-bromobenzyl)pyrazolo[3,4-b]pyrrolo[3,4-d]pyridine-6,8(3H,7H)-dione] | C (C = <50% INHIBITION) |

Tested on: PC-3
Test: MTS assay (cell growth inhibition), PC-3
Type: cell-based
Settings: PC-3 cells, 72 hours incubation with test compound; concentration not given
Method in brief: as §1

| SMILES | MTS CELL KILL DATA (% INHIBITION) PC-3 |
| --- | --- |
| Cc1cccc(CCN2C(=O)c3cnc4[nH]ncc4c3C2=O)c1 [Example 86, 7-[2-(3-methylphenyl)ethyl]pyrazolo[3,4-b]pyrrolo[3,4-d]pyridine-6,8(3H,7H)-dione] | A (A = 80-100% INHIBITION) |
| O=C1c2cnc3[nH]ncc3c2C(=O)N1CCCc1cccnc1 [Example 87, 7-(3-pyridin-3-ylpropyl)pyrazolo[3,4-b]pyrrolo[3,4-d]pyridine-6,8(3H,7H)-dione] | C (C = <50% INHIBITION) |
| COc1cccc(CN2C(=O)c3cnc4[nH]ncc4c3C2=O)c1OC [Example 92, 7-(2,3-dimethoxybenzyl)pyrazolo[3,4-b]pyrrolo[3,4-d]pyridine-6,8(3H,7H)-dione] | C (C = <50% INHIBITION) |
| CC(CN1C(=O)c2cnc3[nH]ncc3c2C1=O)c1ccccc1 (stereo not drawn) [Example 96, 7-(2-phenylpropyl)pyrazolo[3,4-b]pyrrolo[3,4-d]pyridine-6,8(3H,7H)-dione] | C (C = <50% INHIBITION) |
| O=C1c2cnc3[nH]ncc3c2C(=O)N1Cc1c(F)ccc(Cl)c1Cl [Example 97, 7-(2,3-dichloro-6-fluorobenzyl)pyrazolo[3,4-b]pyrrolo[3,4-d]pyridine-6,8(3H,7H)-dione] | C (C = <50% INHIBITION) |
| O=C1c2cnc3[nH]ncc3c2C(=O)N1Cc1ccccc1Br [Example 99, 7-(2-bromobenzyl)pyrazolo[3,4-b]pyrrolo[3,4-d]pyridine-6,8(3H,7H)-dione] | C (C = <50% INHIBITION) |
